Measured values published in patent US10392649B2, “Biosensors that detect NAD+” (Oregon Health & Science University, priority 2014, dated 2019).

Key:
HEK293T = test: NAD+ depletion by FK866 in HEK293T lines expressing localized sensors, live flow cytometry; assay type: cell-based; details: 10 nM FK866, 18 hours; nuclear, cytoplasmic, mitochondrial sensors
Experimental: (§1) Localization sequences were used to direct the sensor to the nucleus, cytoplasm, and mitochondria (FIG. 15A and FIG. 25A, 25B, 25C). […] Mammalian cells predominantly rely on the NAMPT-dependent salvage pathway for NAD+ biosynthesis (Revollo et al, 2004 supra), and presumably all subcellular compartments would be affected by NAMPT inhibition. To test this idea, clonal HEK293T lines stably expressing the localized sensors or their corresponding cpVenus control were generated. Cells were treated with FK866, a potent inhibitor of NAMPT, and NAD+ depletion in different compartments was monitored by live flow cytometry (FIG. 15B). FK866 increased sensor fluorescence in all compartments, indicating a reduction in NAD+ levels. Fluorescence was also monitored in cells expressing the cytoplasmic sensor using live microscopy (FIG. 15C). […]
Data was collected on a special order BD LSRFortessa using 488-1 (Ex. 488 nm, Em. 525/50) and 405-2 (ex. 405 nm, Em. 515/20) for the sensor, and Ex. 561-3 (ex. 561, em 670/30) for PI intensity. Cells were gated to exclude debris, a standard doublet-exclusion was performed, and 1×10^4 fluorescent cells were evaluated per condition. Data were analyzed and plotted with FlowJo X. Sensor 488/405 ratiometric values were normalized to the appropriate cpVenus and experimental controls. […]

HEK293T cells [1] = test: HPLC of perchlorate extracted NAD+ from HEK293T cells; assay type: cell-based; details: 10 nM FK866, 16 hours
Experimental: FIG. 6A is a set of three HPLC spectra from 10 μM purified NAD^+ standard compared to perchlorate extracted NAD^+ from HEK293T cells treated with 0 nM (middle) or 10 nM (bottom) FK866 for 16 hours. Note that NAD^+ is recovered from untreated cells while it is depleted in FK866 treated cells.

HEK293T cells [2] = test: NAD+ depletion by FK866 in cells expressing cytoplasmic sensor, live microscopy; assay type: cell-based
Experimental: as §1, with “15C). Treatment with FK866 began to decrease NAD+ levels in the majority of cells within 1 hour; by 3 hours pockets of NAD+ decreases were observed, which spread throughout the cytoplasm.” for “15C).”
(§2) Live cell imaging was done on a fully motorized Nikon TiE stand with a Yokogawa W1 spinning disk confocal unit. […] Cells were excited at 488 nm and monitored with emission 525/25 nm. For each condition, at least 5 fields containing approximately 50-100 cells were used for quantification of pixel intensity using Metamorph software. […]

NAD+ sensor = biological target: T1, NAD+ sensor (Enterococcus faecalis, UniProt Q837V6, D286N/K120L); test: Specificity of the sensor: fluorescence with related mononucleotides, dinucleotides and NAD+ precursors; assay type: binding; details: purified sensor
T1 construct: HA (N); made in house; host or cells: HEK293T
T1 sequence (Q837V6 other isoform, or with tags, fused parts or gaps K120L/D286N): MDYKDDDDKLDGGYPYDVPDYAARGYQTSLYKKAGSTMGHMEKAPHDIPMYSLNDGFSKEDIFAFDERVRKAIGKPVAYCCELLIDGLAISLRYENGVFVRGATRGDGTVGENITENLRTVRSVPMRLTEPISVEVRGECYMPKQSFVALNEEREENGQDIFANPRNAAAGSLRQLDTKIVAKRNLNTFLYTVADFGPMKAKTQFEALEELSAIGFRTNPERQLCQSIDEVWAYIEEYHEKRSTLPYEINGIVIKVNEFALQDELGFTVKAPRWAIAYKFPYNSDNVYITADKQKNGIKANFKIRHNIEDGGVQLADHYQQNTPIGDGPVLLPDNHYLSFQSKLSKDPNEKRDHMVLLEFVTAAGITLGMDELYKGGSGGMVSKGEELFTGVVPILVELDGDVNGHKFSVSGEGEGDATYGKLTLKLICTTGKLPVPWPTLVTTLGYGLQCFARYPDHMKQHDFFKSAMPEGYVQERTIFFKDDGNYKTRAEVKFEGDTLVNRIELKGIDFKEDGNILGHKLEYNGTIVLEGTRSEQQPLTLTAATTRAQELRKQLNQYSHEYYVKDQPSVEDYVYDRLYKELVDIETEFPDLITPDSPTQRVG
Experimental: To determine the specificity of the sensor for NAD+, sensor fluorescence was evaluated in the presence of related mononucleotides, dinucleotides, and NAD+ precursors (FIG. 14G). […] Thus, pH effects can be accommodated by normalizing to cpVenus. […] (FIG. 24A, 24B, 24C).
(§3) Steady-state fluorescence intensity measurements were performed using a Photon Technology International Quanta Master fluorimeter. Excitation spectra were monitored at 530 nm and emission spectra were measured by excitation at 488 nm and 405 nm. Slit widths used gave 8 nm bandpass for excitation and 44 nm bandpass for emission. Absorbance spectroscopy was performed on a Shimadzu 1601 spectrophotometer. Temperature was controlled with a water jacket and monitored using an Omega Thermistor.

HeLa cells [3] = test: NR in HeLa cells treated with siNAMPT, cytoplasmic sensor; assay type: cell-based; details: NR 1 mM, 24 hours
Experimental: In further experiments, siRNAs that target NAMPT were added to the cells (FIG. 15D). […] Importantly, nicotinamide riboside (NR) increased NAD+ levels in these cells through a parallel pathway that utilizes NR kinase to bypass NAMPT (Bieganowski P and Brenner C, Cell 117, 495-502 (2004); incorporated by reference herein) (FIG. 15E).
Live cell imaging was done on a fully motorized Nikon TiE stand with a Yokogawa W1 spinning disk confocal unit. Instrumentation for this project included a motorized stage in x and y for point-revisiting; z-axis control for fast piezo-based positioning and continuous focus-drift compensation for live cell imaging; dual-pinhole array for improved optical sectioning, a high powered Agilent laser launch; split simultaneous acquisition on two Andor Zyla 5.5 sCMOS cameras; and a 100×1.49 Apo TIRF objective. During imaging, cells were maintained in 5% CO2 at 34° C. Cells were excited at 488 nm and monitored with emission 525/25 nm. For each condition, at least 5 fields containing approximately 50-100 cells were used for quantification of pixel intensity using Metamorph software. The mean intensity per field of each siRNA was normalized to the scramble condition to obtain the normalized intensity measurement.

HeLa cells [4] = test: NR rescue of mitochondrial NAD+ in HeLa cells depleted of NMNAT2; assay type: cell-based; details: NR 1 mM, 24 hours, NMNAT2 depletion
From the text: To confirm this, HeLa cells, which contain very low levels of NMNAT3, were examined. […] Despite its low expression, NMNAT2 was active in HeLa cells, as its depletion decreased cytoplasmic NAD+ (FIG. 38). […] (FIG. 17B). This depletion was not rescued by addition of NR, implying that cytoplasmic NAD+, and not NMN, is responsible for maintaining mitochondrial NAD+ levels in HeLa cells (FIG. 17B). Thus, there appear to be multiple mechanisms for maintaining mitochondrial NAD+ in different cell types; conversion of NMN by NMNAT3 and active transport of cytoplasmic NAD+. An NAD+ transporter has been identified in bacteria (Haferkamp I et al, Nature 432, 622-625 (2004); incorporated by reference herein), yeast (Todisco S et al, J Biol Chem 281, 1524-1531 (2006); incorporated by reference herein), and plants (Palmieri F et al, J Biol Chem 284, 31249-31259 (2009); incorporated by reference herein), although a mammalian homologue has not yet been identified.
as §2

cytoplasmic sensor = biological target: T2, cytoplasmic sensor (Enterococcus faecalis, UniProt Q837V6, D286N/K120L); test: NR effect on cytoplasmic sensor fluorescence when NMNAT2 was depleted; assay type: cell-based; details: NR 1 mM, 24 hours
T2 construct: expressed in transfected cells; HeLa cells were also used
T2 sequence (Q837V6 other isoform, or with tags, fused parts or gaps K120L/D286N): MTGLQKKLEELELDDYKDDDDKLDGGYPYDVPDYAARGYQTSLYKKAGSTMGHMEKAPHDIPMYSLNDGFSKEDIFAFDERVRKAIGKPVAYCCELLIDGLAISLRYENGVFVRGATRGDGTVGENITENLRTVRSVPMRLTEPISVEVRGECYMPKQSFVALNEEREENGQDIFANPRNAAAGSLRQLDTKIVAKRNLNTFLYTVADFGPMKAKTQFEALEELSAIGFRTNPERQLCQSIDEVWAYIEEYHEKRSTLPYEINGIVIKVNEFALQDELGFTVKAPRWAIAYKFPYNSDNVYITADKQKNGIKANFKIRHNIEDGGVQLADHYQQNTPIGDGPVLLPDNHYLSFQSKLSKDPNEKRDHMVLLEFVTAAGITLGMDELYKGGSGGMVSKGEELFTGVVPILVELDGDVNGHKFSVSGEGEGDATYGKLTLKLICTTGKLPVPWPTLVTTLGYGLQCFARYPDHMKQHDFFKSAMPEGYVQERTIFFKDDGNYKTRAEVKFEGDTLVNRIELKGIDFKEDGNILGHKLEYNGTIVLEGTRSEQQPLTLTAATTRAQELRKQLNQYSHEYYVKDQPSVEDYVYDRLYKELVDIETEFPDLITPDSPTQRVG
From the text: FIG. 28 is a bar graph showing that Nicotinamide riboside (NR) has no direct effect on the fluorescence of the cytoplasmic sensor. The cytoplasmically-localized sensor reported a decrease of cytoplasmic NAD+ following depletion of NMNAT2.

[5] = Competition for free NAD+ with GAPDH, sensor fluorescence in real time; assay type: binding; details: equimolar GAPDH, absence of substrate, 10 μM NAD+
Experimental: Fluorescence emission of […] purified sensor was monitored at 520 nm following excitation at 488 nm over time. Three 1-second exposures were obtained every 30 seconds at 20° C. in 100 mM HEPES pH7.4, 150 mM NaCl, 10 mM MgCl2. At the 240 timepoint, NAD+ was added to a final concentration of 10 μM; at the 600 second timepoint, full-length active human GAPDH (AbCam) was added to a final concentration of 11.7 μM. Fluorescence measurements were corrected for dilution factor. Mean±SD, n=2.

[6] = Calibration of cytoplasmic sensor in digitonin permeabilized HEK293T cells, flow cytometry; assay type: cell-based
Experimental: The free NAD+ concentration in the nucleus and cytoplasm has been debated. To calibrate the sensor, cells were permeabilized with digitonin to allow internal NAD+ levels to equilibrate with concentrations external to the cell and fluorescence monitored by flow cytometry. Equilibration was assessed using propidium iodide (PI), whose molecular weight is similar to that of NAD+ (FIG. 29). […] The mean of the fluorescence ratio (488/405 nm) for the cytoplasmic sensor in non-permeabilized HEK293T cells relative to cpVenus was interpolated to reveal a free NAD+ value of 105.8 μM (95% Cl, 92.3 μM to 121.7 μM). […] To confirm these calculations, flow cytometry was used to examine the fluorescence of the cytoplasmic sensor in populations of HeLa cells that were partially permeabilized (FIG. 16B). When equilibrated with either 500 μM or 1 mM NAD+, cytoplasmic fluorescence of the permeabilized cell population decreased, indicating an increase in NAD+. In contrast, equilibration with media containing no external NAD+ increased fluorescence, likely due to NAD+ diffusion. […]
Data was collected on a special order BD LSRFortessa using 488-1 (Ex. 488 nm, Em. 525/50) and 405-2 (ex. 405 nm, Em. 515/20) for the sensor, and Ex. 561-3 (ex. 561, em 670/30) for PI intensity. Cells were gated to exclude debris, a standard doublet-exclusion was performed, and 1×10^4 fluorescent cells were evaluated per condition. […]

[7] = Fluorescence spectroscopy of purified sensor with NAD+ (cell free); assay type: binding; details: for effect of NAD+ on fluorescence (ex. 488 nm): purified protein, NAD+ concentrations up to 1 mM
Experimental: Fluorescence emission spectra were recorded using a PTI steady-state fluorescence spectrophotometer. Excitation spectra were captured at 530 nm while exciting from 350 to 515 nm. Emission spectra were measured by excitation at 405 nm or 488 nm while scanning the fluorescence intensity of 475 to 600 nm.
The sensors and controls were purified in batch format from mammalian HEK293T cells via their N-terminal Flag epitope tag, using anti-Flag M2 Affinity Gel (Sigma) and lysis buffer (50 mM Tris pH 7.4, 150 mM NaCl, 1 mM EDTA, 10 mM NaF, 0.5% NP-40, 1 mM DTT, and Complete Protease Inhibitor cocktail). Protein was eluted with 500 μg/mL 3× Flag peptide and dialyzed against 100 mM Tris pH 7.4, 150 mM NaCl, 0.5 mM DTT, 100 μM PMSF, 1 mM EDTA, and 50% glycerol. Bradford assays were used to quantify the concentration in each batch and aliquots were flash frozen in liquid nitrogen for storage at −80° C.
as §3

[8] = NAD+ washout (reversibility of binding to purified sensor); details: 500 μM NAD+, elution over buffer exchange column
Experimental: Purified sensor (2 μM) was incubated with either 0μ or 500 μM NAD+ in a total of 75 μL and evaluated for its fluorescence excitation and emission spectra. Each sample was then passed over a pre-equilibrated (50 mM Tris pH 7.4, 150 mM NaCl) micro buffer exchange column (Biorad microbiospin P30), washed, and eluted in […] buffer volume for reevaluation of fluorescence.

[9] = Fluorescence lifetime measurements of the sensor; details: 488 nm excitation
Experimental: Fluorescence lifetime measurements were performed on a PicoQuant FluoTime 200 time correlated single photon counting instrument (PicoQuant, Berlin), outfitted with a Hamamatsu micro-channel plate detector. Decays were measured with the polarizers at the magic angle and with 16 nm bandpass emission slits. […] Emission from the samples was collected at 525 nm, with an additional 520 nm long-pass filter on the detector side of the sample. The fluorescence decays were fit by means of PicoQuant software, using an exponential decay model [I(t)=Σi-1^nAie^−t/τ^i] where A, is the amplitude of the i^th component, in counts, in the first range fitting channel and τi is the lifetime of the i^th component.

Compound: O=C(/C=C/c1cccnc1)NCCCCC1CCN(C(=O)c2ccccc2)CC1 [FK866]
- sensor fluorescence in all compartments (indicating reduction in NAD+ levels) (HEK293T): increased
- NAD+ recovered by HPLC (HEK293T cells [1]): depleted
- time at which NAD+ levels began to decrease in the majority of cells (HEK293T cells [2]): ≤ 1 h

Compound: NC(=O)c1ccc[n+]([C@@H]2O[C@H](COP(=O)([O-])OP(=O)(O)OC[C@H]3O[C@@H](n4cnc5c(N)ncnc54)[C@H](O)[C@@H]3O)[C@@H](O)[C@H]2O)c1 [NAD+, nicotinamide adenine dinucleotide]
- effect of substrate on sensor fluorescence / recognition by the sensor (NAD+ sensor): decreased sensor fluorescence

Compound: NC(=O)c1ccc[n+]([C@@H]2O[C@H](CO)[C@@H](O)[C@H]2O)c1 [NR, nicotinamide riboside]
- effect of substrate on sensor fluorescence / recognition by the sensor (NAD+ sensor): not recognized
- NAD+ levels (HeLa cells [3]): increased
- rescue of decreased mitochondrial NAD+ (HeLa cells [4]): not rescued
- nonspecific effect on sensor fluorescence (cytoplasmic sensor): did not alter

Compound: GAPDH: full-length active human glyceraldehyde 3-phosphate dehydrogenase (AbCam)
- sensor fluorescence upon GAPDH addition [5]: almost immediate recovery of fluorescence

Compound: cpVenus: circularly permuted version of Venus fluorescent protein, control
- effect of NAD+ on fluorescence in permeabilized cells [6]: minimally affected
- effect of NAD+ on fluorescence (ex. 488 nm) [7]: minimally affected

Compound: sensor: NAD+ biosensor polypeptide: FLAG, HA, LigA 78-317 fragment, cpVenus, linker, LigA 2-70 fragment
- change in the Kd value with temperature ([7]; between 20-37° C.): no significant changes
- Kd ([7]; in vitro, purified sensor, 488 nm, read-out: apparent Kd(NAD+)): ~65 µM
- NAD+-dependent responses across pH ([7]; pH 6.5-8.0): similar
- effect of NAD+ on fluorescence (ex. 488 nm) [7]: decreased
- effect of NAD+ binding on second excitation peak at 405 nm ([7]; purified sensor): unaffected
- reversibility of NAD+ binding [8]: reversible
- effect of NAD+ on fluorescence lifetime [9]: did not affect
